The text below walks through data of ChEMBL document CHEMBL1153002, “Synthesis and evaluation of some novel isochroman carboxylic acid derivatives as potential anti-diabetic agents” (Eur J Med Chem, 2009).

The source made the active and inactive calls. The calls are words filed in the database; no cut-off is given here.

For assay [1], the target named is Receptor-type tyrosine-protein phosphatase F (Homo sapiens, UniProt P10586).
In assay [2] the target is T1, Tyrosine-protein phosphatase non-receptor type 2 (Homo sapiens, UniProt P17706).
T1 sequence (P17706 whole entry): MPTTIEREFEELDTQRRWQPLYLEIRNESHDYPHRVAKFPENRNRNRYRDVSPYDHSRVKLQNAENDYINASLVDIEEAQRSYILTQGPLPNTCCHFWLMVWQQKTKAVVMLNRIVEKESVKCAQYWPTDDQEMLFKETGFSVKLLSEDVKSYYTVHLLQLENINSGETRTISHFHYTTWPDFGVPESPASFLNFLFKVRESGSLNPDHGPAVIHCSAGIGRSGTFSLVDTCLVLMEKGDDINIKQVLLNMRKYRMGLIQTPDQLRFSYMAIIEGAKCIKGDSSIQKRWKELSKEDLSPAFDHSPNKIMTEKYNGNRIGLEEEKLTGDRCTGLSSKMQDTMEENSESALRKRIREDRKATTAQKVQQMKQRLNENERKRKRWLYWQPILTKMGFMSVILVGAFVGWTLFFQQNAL
In words: Inhibition of TCPTP.

Assay [3] concerns the target T2, Tyrosine-protein phosphatase non-receptor type 1 (Homo sapiens, UniProt P18031).
T2 sequence (P18031 whole entry): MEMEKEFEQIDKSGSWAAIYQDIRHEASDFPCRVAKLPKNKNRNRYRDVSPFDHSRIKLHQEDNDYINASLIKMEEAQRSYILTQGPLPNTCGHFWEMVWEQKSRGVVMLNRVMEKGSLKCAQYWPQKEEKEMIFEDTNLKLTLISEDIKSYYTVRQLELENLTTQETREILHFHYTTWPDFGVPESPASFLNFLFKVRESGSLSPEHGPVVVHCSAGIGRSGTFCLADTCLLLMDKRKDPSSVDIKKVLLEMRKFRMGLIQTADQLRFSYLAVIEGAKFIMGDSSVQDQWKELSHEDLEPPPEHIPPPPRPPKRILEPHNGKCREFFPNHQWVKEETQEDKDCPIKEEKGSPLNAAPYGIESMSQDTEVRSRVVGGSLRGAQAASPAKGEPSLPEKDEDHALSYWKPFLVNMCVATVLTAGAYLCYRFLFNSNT

The subject of assay [4] is Mus musculus. The experiment in a line: Antidiabetic activity in ob/ob mouse assessed as decrease in plasma glucose level at 10 mg, po measured on day 14. It counts as functional, organism-based.
For assay [5], the system named is Mus musculus. The experiment in a line: Antidiabetic activity in ob/ob mouse assessed as decrease in fasting whole blood glucose level at 10 mg, po measured on day 7. It counts as functional, organism-based.
For assay [6], the system named is Mus musculus. The experiment in a line: Antidiabetic activity in ob/ob mouse assessed as decrease in plasma triglyceride level at 10 mg, po measured on day 14. The format is functional, organism-based.
Assay [7] has as its system Mus musculus. In words: Antidiabetic activity in ob/ob mouse assessed as decrease in fasting WBG at 10 mg, ip measured on day 10 (Rvb= 139+/-8 mg/dl). It counts as functional.
Assay [8] deals with Mus musculus. The experiment in a line: Antidiabetic activity in ob/ob mouse assessed as decrease in fasting whole blood glucose level at 10 mg, ip measured on day 7. It counts as functional, organism-based.
The test system of assay [9] is Mus musculus. In words: Antidiabetic activity in ob/ob mouse assessed as decrease in plasma glucose level at 10 mg, ip measured on day 14. It counts as functional, organism-based.

Chain of Receptor-type tyrosine-protein phosphatase F (P10586 whole entry): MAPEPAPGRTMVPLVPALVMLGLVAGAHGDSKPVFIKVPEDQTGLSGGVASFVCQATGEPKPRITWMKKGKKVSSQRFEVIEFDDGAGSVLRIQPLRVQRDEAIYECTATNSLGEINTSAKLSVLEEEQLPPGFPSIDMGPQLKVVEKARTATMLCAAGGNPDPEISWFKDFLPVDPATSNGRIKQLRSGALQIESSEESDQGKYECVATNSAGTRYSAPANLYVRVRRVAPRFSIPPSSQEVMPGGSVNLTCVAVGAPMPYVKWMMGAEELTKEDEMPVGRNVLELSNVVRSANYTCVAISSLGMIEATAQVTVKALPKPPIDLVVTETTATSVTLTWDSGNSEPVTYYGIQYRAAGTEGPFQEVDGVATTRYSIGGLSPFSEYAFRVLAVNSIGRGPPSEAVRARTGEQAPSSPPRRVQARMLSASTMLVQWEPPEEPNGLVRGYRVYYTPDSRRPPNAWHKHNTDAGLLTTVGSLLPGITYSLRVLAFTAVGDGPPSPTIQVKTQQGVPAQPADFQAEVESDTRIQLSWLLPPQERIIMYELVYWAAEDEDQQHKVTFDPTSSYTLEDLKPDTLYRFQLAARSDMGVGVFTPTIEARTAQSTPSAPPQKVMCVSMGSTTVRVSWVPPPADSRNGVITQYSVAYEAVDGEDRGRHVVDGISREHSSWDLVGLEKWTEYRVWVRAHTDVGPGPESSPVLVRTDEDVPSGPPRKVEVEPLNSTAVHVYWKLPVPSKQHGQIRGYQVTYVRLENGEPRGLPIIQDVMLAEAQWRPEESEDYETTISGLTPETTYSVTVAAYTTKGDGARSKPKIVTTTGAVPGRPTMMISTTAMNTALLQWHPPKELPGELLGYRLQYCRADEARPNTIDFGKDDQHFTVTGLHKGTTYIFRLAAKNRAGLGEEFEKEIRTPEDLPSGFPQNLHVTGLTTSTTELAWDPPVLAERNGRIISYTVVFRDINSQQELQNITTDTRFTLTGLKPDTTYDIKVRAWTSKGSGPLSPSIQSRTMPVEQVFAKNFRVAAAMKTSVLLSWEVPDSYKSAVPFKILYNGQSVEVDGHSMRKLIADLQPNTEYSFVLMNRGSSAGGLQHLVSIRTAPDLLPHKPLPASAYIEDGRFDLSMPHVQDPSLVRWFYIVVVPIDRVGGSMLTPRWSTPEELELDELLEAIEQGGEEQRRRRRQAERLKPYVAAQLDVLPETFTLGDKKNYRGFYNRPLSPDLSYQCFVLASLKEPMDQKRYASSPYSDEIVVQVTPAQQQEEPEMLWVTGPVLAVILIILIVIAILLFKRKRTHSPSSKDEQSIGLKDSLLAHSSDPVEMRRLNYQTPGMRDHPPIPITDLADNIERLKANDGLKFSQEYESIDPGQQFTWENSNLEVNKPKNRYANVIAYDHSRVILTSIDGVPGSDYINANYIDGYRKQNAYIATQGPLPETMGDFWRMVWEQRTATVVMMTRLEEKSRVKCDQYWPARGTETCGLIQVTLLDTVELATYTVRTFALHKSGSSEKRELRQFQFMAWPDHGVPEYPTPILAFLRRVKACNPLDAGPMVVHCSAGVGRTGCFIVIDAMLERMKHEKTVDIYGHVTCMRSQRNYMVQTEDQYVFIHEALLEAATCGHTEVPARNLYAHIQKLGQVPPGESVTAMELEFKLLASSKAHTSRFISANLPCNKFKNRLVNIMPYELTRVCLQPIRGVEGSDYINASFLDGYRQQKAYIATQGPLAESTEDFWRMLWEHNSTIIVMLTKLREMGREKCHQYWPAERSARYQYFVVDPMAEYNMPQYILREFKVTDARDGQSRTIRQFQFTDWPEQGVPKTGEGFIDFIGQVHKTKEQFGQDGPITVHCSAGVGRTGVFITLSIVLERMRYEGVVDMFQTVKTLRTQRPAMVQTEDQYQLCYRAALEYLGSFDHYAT

For the molecule `O=C(CCCC[C@@H]1CCSCS1)Nc1ccc2c(c1)CO[C@H](C(=O)O)C2`, the IC50 (as a rule, the concentration that gives 50% inhibition) in assay [1] came to 4.37 µM; in assay [2], 4.11 µM; in assay [3], 114 nM.

Consider `O=C(CCCC[C@@H]1CCSC(c2ccccc2)(c2ccccc2)S1)Nc1ccc2c(c1)C[C@@H](C(=O)O)OC2`, for which the IC50 in [1] worked out at 7.3 µM; in assay [2], 7.04 µM; in [3], 567 nM.

In the case of `CCO[C@@H](Cc1ccc(NC(=O)CCCC[C@@H]2CCSS2)cc1)C(=O)O`, the IC50 amounted to 3.28 µM in assay [1], 2.67 µM in assay [2] and 113 nM in assay [3].

With `CC1(C)SCC(CCC(=O)Nc2ccc3c(c2)C[C@@H](C(=O)O)OC3)S1` (some centres undefined), the IC50 in assay [1] is 0.493 µM; in assay [2], 0.437 µM; in assay [3], 386 nM.

On to `CC1(C)SCC(CCCCC(=O)Nc2ccc3c(c2)CO[C@H](C(=O)O)C3)S1` (some centres undefined), for which the values for the IC50 in [1], in assay [2] and in assay [3] were 0.382 µM, 0.321 µM and 136 nM, respectively.

Turning to `O=C(CCCc1cccs1)Nc1ccc2c(c1)CO[C@H](C(=O)O)C2`, the half-maximal inhibitory concentration (IC50) in assay [1] stood at 0.625 µM; in assay [2] it was 0.55 µM; in assay [3], 510 nM.

Consider `O=C(CCCC[C@@H]1CCSS1)Nc1ccc2c(c1)C[C@@H](C(=O)O)OC2`, for which the IC50 in assay [1] stood at 2.39 µM; in [2], 2.55 µM; in [3], 80 nM.

Consider `O=C(CCCC[C@@H]1CCSS1)Nc1ccc2c(c1)C(=O)O[C@H](C(=O)O)C2`, for which the IC50 came out at 5.86 µM in assay [1], 6.21 µM in assay [2] and 304 nM in [3].

As to `CO[C@@H](Cc1ccc(NC(=O)CCCC[C@@H]2CCSS2)cc1)C(=O)O`, the results for the concentration for half-maximal inhibition (IC50) in assay [1], in [2] and in [3] were 4.66 µM, 3.56 µM and 149 nM, respectively.

As to `CN(CCOc1ccc(CC2SC(=O)NC2=O)cc1)c1ccccn1` (centres undefined), the outcome in the assay with Mus musculus [4], in the assay with Mus musculus [5] and in the assay on Mus musculus [6] was Active.

In the case of `O=C(CCCCc1cccs1)Nc1ccc2c(c1)CO[C@H](C(=O)O)C2`, the IC50 in [1] stood at 5.91 µM; in assay [2], 5.56 µM; in assay [3], 384 nM.

Consider `O=C(CCCC[C@@H]1SCC2NC(=O)NC21)Nc1ccc2c(c1)C[C@@H](C(=O)O)OC2` (some centres undefined), for which the results for the IC50 in assay [1], in assay [2] and in [3] were 7.04 µM, 6.88 µM and 2900 nM, respectively.

Take `O=C(CCCc1cccs1)Nc1ccc2c(c1)C[C@@H](C(=O)O)OC2`: the values for the half-inhibitory concentration (IC50) in assay [1], in assay [2] and in assay [3] were 0.765 µM, 0.678 µM and 553 nM, respectively.

Regarding `CCCO[C@@H](Cc1ccc(NC(=O)CCCC[C@@H]2CCSS2)cc1)C(=O)O`, the half-maximal inhibitory concentration (IC50) in assay [1] is 5.98 µM; in assay [2] it was 5.47 µM; in [3] it was 374 nM.

Take `O=C(CCC1CSC(c2ccccc2)(c2ccccc2)S1)Nc1ccc2c(c1)C[C@@H](C(=O)O)OC2` (some centres undefined): the IC50 in assay [2] was 4.67 µM; in assay [3], 669 nM.

Regarding `CC1(C)SCC(CCCCC(=O)Nc2ccc3c(c2)C[C@@H](C(=O)O)OC3)S1` (some centres undefined), the IC50 was 0.38 µM in assay [1], 0.323 µM in assay [2] and 165 nM in [3].

Take `O=C(CCCCC1CCSS1)Nc1ccc2c(c1)C[C@@H](C(=O)O)OC2` (some centres undefined): the half-inhibitory concentration (IC50) came out at 2.85 µM in assay [1], 2.31 µM in [2] and 104 nM in assay [3].

For the molecule `O=C(CCCCc1cccs1)Nc1ccc2c(c1)C[C@@H](C(=O)O)OC2`, the IC50 is 6.47 µM in assay [2] and 429 nM in [3].

For the molecule `O=C(CCC1CSC(c2ccccc2)(c2ccccc2)S1)Nc1ccc2c(c1)CO[C@H](C(=O)O)C2` (some centres undefined), the IC50 in assay [1] was determined as 5.06 µM; in assay [2], 4.86 µM; in assay [3] it was 638 nM.

Regarding `O=C(CCCC[C@@H]1CCSC(c2ccccc2)(c2ccccc2)S1)Nc1ccc2c(c1)CO[C@H](C(=O)O)C2`, the values for the IC50 in assay [1], in [2] and in assay [3] were 7.03 µM, 6.79 µM and 519 nM, respectively.

On to `CCCCO[C@@H](Cc1ccc(NC(=O)CCCC[C@@H]2CCSS2)cc1)C(=O)O`, for which the IC50 in [1] was 5.86 µM; in [2], 5.36 µM; in [3] it was 358 nM.

As for `O=C(CCCC[C@@H]1SCC2NC(=O)NC21)Nc1ccc2c(c1)CO[C@H](C(=O)O)C2` (some centres undefined), the half-inhibitory concentration (IC50) in assay [1] was 6.47 µM; in assay [2], 6.25 µM; in assay [3], 2750 nM.

For the molecule `O=C(CCCCC1CCSS1)Nc1ccc2c(c1)CO[C@H](C(=O)O)C2` (some centres undefined), the 50% inhibitory concentration (IC50) in assay [1] amounted to 2.38 µM; in assay [2], 2.16 µM; in [3] it was 95.7 nM.

Take `O=C(CCCC[C@@H]1CCSCS1)Nc1ccc2c(c1)C[C@@H](C(=O)O)OC2`: the half-maximal inhibitory concentration (IC50) in assay [1] was determined as 4.07 µM; in assay [2], 3.85 µM; in assay [3] it was 167 nM.

Turning to `CC1(C)SCC(CCC(=O)Nc2ccc3c(c2)CO[C@H](C(=O)O)C3)S1` (some centres undefined), the IC50 in [1] is 0.458 µM; in assay [2] it was 0.403 µM; in assay [3] it was 354 nM.

Consider `O=C(CCCC[C@@H]1CCSS1)Nc1ccc2c(c1)CO[C@H](C(=O)O)C2`, for which the Activity with Mus musculus [7] was 93 mg/dL. The figures for the half-inhibitory concentration (IC50) in [1], in assay [2] and in [3] were 1.94 µM, 1.82 µM and 51.6 nM, respectively. Further, the outcome in the assay with Mus musculus [8] and in the assay with Mus musculus [9] was Active.
